Assay results taken from patent US20180099937A1, “NOVEL ARYL-CYANOGUANIDINE COMPOUNDS” (Bayer Pharma Aktiengesellschaft, priority 2015, published 2018).

biological target: SMYD2 (Homo sapiens, UniProt Q9NRG4); experiment: Scintillation Proximity Assay (SPA) for detection of SMYD2 enzymatic inhibition; type: biochemical; set-up: The SMYD2 full length enzyme was produced in-house by expression (with an N-terminal 6× His tag) in E. coli; 6xHis (N); made in house; host or cells: E. coli; conditions: SMYD2 full length enzyme, p53 Peptide substrate 1.0 μM, 3H-SAM 60 nM; read-out: IC50 [mol/l] (SPA Assay)
Excerpt: 1.1 Scintillation Proximity Assay (SPA) for Detection of SMYD2 Enzymatic Inhibition
SMYD2 inhibitory activities of the compounds described in the present invention were quantified using a scintillation proximity assay (SPA) which measures methylation by the enzyme of the synthetic, biotinylated peptide Btn-Ahx-[…]—Amid×TFA (Biosyntan) derived from p53 and referred to from here on as “p53 Peptide”. The SMYD2 full length enzyme was produced in-house by expression (with an N-terminal 6× His tag) in E. coli and purification by affinity chromatography on a Ni-NTA Sepharose column followed by a size exclusion chromatography step on a Superdex 200 16/60 column (GE Healthcare).
In a typical assay 11 different concentrations of each compound (0.1 nM, 0.33 nM, 1.1 nM, 3.8 nM, 13 nM, 44 nM, 0.15 μM, 0.51 μM, 1.7 μM, 5.9 μM and 20 μM) were tested in duplicate within the same microtiter plate. To this end, 100-fold concentrated compound solutions (in DMSO) were previously prepared by serial dilution (1:3.4) of 2 mM stocks in a clear low volume 384-well source microliter plate (Greiner Bio-One), from which 50 nl of compound solutions were transferred into a white low volume test microtiter plate from the same supplier. Subsequently, 2.5 μl SMYD2 in aqueous assay buffer [50 mM Tris/HCl pH 9.0 (AppliChem), 1 mM dithiothreitol (DTT, Sigma), 0.01% (w/v) bovine serum albumine (BSA, Sigma), 0.0022% (v/v) Pluronic (Sigma)] were added to the compounds in the test plate to a final enzyme concentration of —typically—3 nM (this parameter was adjusted depending on the activity of the enzyme lot in order to be within the linear dynamic range of the assay). The samples were then incubated for 15 min at 22° C. to allow pre-equilibration of the putative enzyme-inhibitor complexes before the start of the methylation reaction, which was initiated by the addition of 2.5 μl 2-fold concentrated solution (in assay buffer) of titriated S-Adenosyl-L-Methionine (3H-SAM, Perkin Elmer, final concentration: 60 nM) and p53 Peptide substrate (final concentration: 1.0 μM). The resulting mixture (5 μl final volume) was shortly centrifuged (2 min., 1500 rpm) and incubated at 22° C. during 30 min. Thereupon the reaction was stopped by adding 3 μl of Streptavidin PS SPA imaging beads (Perkin Elmer, final concentration of 3.12 μg/μl) and “cold” SAM (AK Scientific, 25 μM final concentration) for non-specific binding reduction. Plates containing the stopped reaction were sealed with transparent adhesive foil (Perkin Elmer), centrifuged (2 min., 1500 rpm), and further incubated for —at least—1 h at RT (or overnight at 4° C.) in order to allow the SPA signals to develop. Subsequently, the amount of product was evaluated by measuring the energy transfer from the β-particles emitted by the 3H-labeled substrate to the Europium scintillator co-polymerized in the polystyrene matrix of the PS imaging beads, using the standard settings for this purpose of a Viewlux (Perkin-Elmer) CCD plate imaging device (emission filter 613/55 (IFP). The resulting scintillation counts were taken as indicator for the amount of methylated peptide per well. The data were normalised using two sets of control wells (typically 16 each) for high−(=enzyme reaction with DMSO instead of test compound=0% =Minimum inhibition) and low−(=all assay components without enzyme=100% =Maximum inhibition) SMYD2 activity. IC50 values were calculated by fitting the normalized inhibition data to a 4-parameter logistic equation using the “Screener” analysis software from Genedata.

SMYD2, sequence (Q9NRG4 whole entry): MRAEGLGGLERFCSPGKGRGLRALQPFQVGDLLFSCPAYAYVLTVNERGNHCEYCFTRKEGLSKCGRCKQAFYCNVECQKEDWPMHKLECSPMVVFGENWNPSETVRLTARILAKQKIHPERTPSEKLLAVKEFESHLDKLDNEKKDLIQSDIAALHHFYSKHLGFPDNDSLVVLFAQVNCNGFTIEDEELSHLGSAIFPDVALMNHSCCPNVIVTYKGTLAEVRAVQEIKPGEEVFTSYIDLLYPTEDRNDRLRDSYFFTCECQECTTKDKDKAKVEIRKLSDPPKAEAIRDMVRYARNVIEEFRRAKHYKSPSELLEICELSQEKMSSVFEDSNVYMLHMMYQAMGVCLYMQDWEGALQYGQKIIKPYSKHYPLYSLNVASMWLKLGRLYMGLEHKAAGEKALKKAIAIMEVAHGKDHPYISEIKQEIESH

Row | Structure (SMILES) | IC50
1 | CCN(C(=O)[C@H]1CCCN1)C1CN(/C(=N\C#N)Nc2cccc(OC(F)F)c2F)N=C1c1ccc(Cl)c(Cl)c1 (single isomer, unassigned) [Example 13.2, N-[1-{N′-Cyano-N-[3-(difluoromethoxy)-2-fluorophenyl]carbamimidoyl}-3-(3,4-dichlorophenyl)-4,5-dihydro-1H-pyrazol-4-yl]-N-ethyl-D-prolinamide] | 268 nM
2 | CCN(C(=O)[C@H]1CCCN1)C1CN(/C(=N\C#N)Nc2cccc(OC(F)(F)F)c2)N=C1c1ccc(Cl)c(Cl)c1 (single isomer, unassigned) [Example 17.1, N-[1-{N′-Cyano-N-[3-(trifluoromethoxy)phenyl]carbamimidoyl}-3-(3,4-dichlorophenyl)-4,5-dihydro-1H-pyrazol-4-yl]-N-ethyl-D-prolinamide] | 21 nM
3 | CCN(C(=O)[C@H]1CCCN1)C1CN(/C(=N\C#N)Nc2cccc(OC(F)(F)F)c2)N=C1c1ccc(Cl)c(Cl)c1 (single isomer, unassigned) [Example 17.2, N-[1-{N′-Cyano-N-[3-(trifluoromethoxy)phenyl]carbamimidoyl}-3-(3,4-dichlorophenyl)-4,5-dihydro-1H-pyrazol-4-yl]-N-ethyl-D-prolinamide] | 1380 nM
4 | CCN(C(=O)[C@H]1CCCN1)C1CN(/C(=N\C#N)Nc2ccc(F)c(OC(F)(F)F)c2)N=C1c1ccc(Cl)c(Cl)c1 (single isomer, unassigned) [Example 22.2, N-[1-{N′-Cyano-N-[4-fluoro-3-(trifluoromethoxy)phenyl]carbamimidoyl}-3-(3,4-dichlorophenyl)-4,5-dihydro-1H-pyrazol-4-yl]-N-ethyl-D-prolinamide] | 296 nM
5 | CCN(C(=O)[C@H]1CCCN1)C1CN(/C(=N\C#N)Nc2cc(F)cc(OC(F)(F)F)c2)N=C1c1ccc(Cl)c(Cl)c1 (single isomer, unassigned) [Example 24.2, N-[1-{N′-Cyano-N-[3-fluoro-5-(trifluoromethoxy)phenyl]carbamimidoyl}-3-(3,4-diehlorophenyl)-4,5-dihydro-1H-pyrazol-4-yl]-N-ethyl-D-prolinamide] | 3950 nM
6 | CCN(C(=O)[C@H]1C[C@@H](F)CN1)C1CN(/C(=N\C#N)Nc2cc(F)cc(OC(F)(F)F)c2)N=C1c1ccc(Cl)c(Cl)c1 (single isomer, unassigned) [Example 25.1] | 248 nM
7 | CCN(C(=O)[C@H]1C[C@@H](F)CN1)C1CN(/C(=N\C#N)Nc2cc(F)cc(OC(F)(F)F)c2)N=C1c1ccc(Cl)c(Cl)c1 (single isomer, unassigned) [Example 25.2] | > 20000 nM
8 | CCN(C(=O)[C@H]1CCCN1)C1CN(/C(=N\C#N)Nc2cc(C(F)(F)F)ccc2OC(F)(F)F)N=C1c1ccc(Cl)c(Cl)c1 (single isomer, unassigned) [Example 30.1, N-[1-{N′-Cyano-N-[2-(trifluoromethoxy)-5-(trifluoromethyl)phenyl]carbamimidoyl}-3-(3,4-dichlorophenyl)-4,5-dihydro-1H-pyrazol-4-yl]-N-ethyl-D-prolinamide] | 54.5 nM
9 | CCN(C(=O)[C@H]1CCCN1)C1CN(/C(=N\C#N)Nc2cc(C(F)(F)F)ccc2OC(F)(F)F)N=C1c1ccc(Cl)c(Cl)c1 (single isomer, unassigned) [Example 30.2, N-[1-{N′-Cyano-N-[2-(trifluoromethoxy)-5-(trifluoromethyl)phenyl]carbamimidoyl}-3-(3,4-dichlorophenyl)-4,5-dihydro-1H-pyrazol-4-yl]-N-ethyl-D-prolinamide] | 1540 nM
10 | CCN(C(=O)[C@H]1CCCN1)C1CN(/C(=N\C#N)Nc2cccc(CC(F)(F)F)c2)N=C1c1ccc(Cl)c(Cl)c1 (single isomer, unassigned) [Example 31.1, N-[1-{N′-Cyano-N-[3-(2,2,2-trifluoroethyl)phenyl]carbamimidoyl}-3-(3,4-dichlorophenyl)-4,5-dihydro-1H-pyrazol-4-yl]-N-ethyl-D-prolinamide] | 33.6 nM
